# In US8808743B2, “Benzonatate compositions and methods of use” (priority 2010, dated 2014):
# Assay: Simulated gastrointestinal dissolution testing (FloVitro apparatus, USP simulated gastric and intestinal fluids)
# Format: physicochemical
# Conditions: 100 mg dose
# Method: The dissolution test used procedures devised by DOW Chemical using their proprietary FloVitro™ dissolution apparatus described in U.S. Pat. No. 6,799,123B2 and in the publication titled “FloVitro™ Technology” published online at:
# The system used two different media that were combined during the process. The fluid flow rates were:
# Simulated gastric fluid=7.7 ml/min
# Simulated intestinal fluid=13.1 ml/mi
# Total flow through analyzer=20.8 ml/min
# To Cell 1: USP simulated gastric fluid (no pepsin)
# To Cell 2: USP simulated intestinal fluid (pH 6.8) (SIF)
# The samples tested were: • a) 100 mg dose neat benzonatate • b) 220.48 mg of IRP69H resinate: 87.97 mg benzonatate dose • c) 225.15 mg of IRP64H resinate: 102.21 mg benzonatate dose a) 100 mg Neat Benzonatate
structure (smiles),measurement,setting,value
"CCCCNc1ccc(C(=O)OCCOCCOCCOCCOCCOCCOCCOCCOCCOC)cc1 [BENZ, benzonatate]",Concentration of Homolog in Effluent Total,120 min,18.66 mg/L
same,Concentration of Homolog in Effluent n = 3,120 min,0.05 mg/L
same,Concentration of Homolog in Effluent n = 4,120 min,0.20 mg/L
same,Concentration of Homolog in Effluent n = 5,120 min,0.53 mg/L
same,Concentration of Homolog in Effluent n = 6,120 min,1.18 mg/L
same,Concentration of Homolog in Effluent n = 7,120 min,1.99 mg/L
same,Concentration of Homolog in Effluent n = 8,120 min,2.67 mg/L
same,Concentration of Homolog in Effluent n = 9,120 min,3.01 mg/L
same,Concentration of Homolog in Effluent n = 10,120 min,2.84 mg/L
same,Concentration of Homolog in Effluent n = 11,120 min,2.44 mg/L
same,Concentration of Homolog in Effluent n = 12,120 min,1.73 mg/L
same,Concentration of Homolog in Effluent n = 13,120 min,1.13 mg/L
same,Concentration of Homolog in Effluent n = 14,120 min,0.59 mg/L
same,Concentration of Homolog in Effluent n = 15,120 min,0.31 mg/L
same,Concentration of Homolog in Effluent n = 16,120 min,0.00 mg/L
same,Concentration of Homolog in Effluent n = 17,120 min,0.00 mg/L
same,Cumul. (cumulative release in effluent),120 min,81.10 mg
same,Concentration of Homolog in Effluent Total,180 min,9.68 mg/L
same,Concentration of Homolog in Effluent n = 3,180 min,0.00 mg/L
same,Concentration of Homolog in Effluent n = 4,180 min,0.10 mg/L
same,Concentration of Homolog in Effluent n = 5,180 min,0.29 mg/L
same,Concentration of Homolog in Effluent n = 6,180 min,0.61 mg/L
same,Concentration of Homolog in Effluent n = 7,180 min,1.04 mg/L
same,Concentration of Homolog in Effluent n = 8,180 min,1.41 mg/L
same,Concentration of Homolog in Effluent n = 9,180 min,1.57 mg/L
same,Concentration of Homolog in Effluent n = 10,180 min,1.51 mg/L
same,Concentration of Homolog in Effluent n = 11,180 min,1.26 mg/L
same,Concentration of Homolog in Effluent n = 12,180 min,0.90 mg/L
same,Concentration of Homolog in Effluent n = 13,180 min,0.57 mg/L
same,Concentration of Homolog in Effluent n = 14,180 min,0.30 mg/L
same,Concentration of Homolog in Effluent n = 15,180 min,0.11 mg/L
same,Concentration of Homolog in Effluent n = 16,180 min,0.00 mg/L
same,Concentration of Homolog in Effluent n = 17,180 min,0.00 mg/L
same,Cumul. (cumulative release in effluent),180 min,90.57 mg
same,Concentration of Homolog in Effluent Total,240 min,5.50 mg/L
same,Concentration of Homolog in Effluent n = 3,240 min,0.00 mg/L
same,Concentration of Homolog in Effluent n = 4,240 min,0.06 mg/L
same,Concentration of Homolog in Effluent n = 5,240 min,0.16 mg/L
same,Concentration of Homolog in Effluent n = 6,240 min,0.36 mg/L
same,Concentration of Homolog in Effluent n = 7,240 min,0.60 mg/L
same,Concentration of Homolog in Effluent n = 8,240 min,0.78 mg/L
same,Concentration of Homolog in Effluent n = 9,240 min,0.89 mg/L
same,Concentration of Homolog in Effluent n = 10,240 min,0.84 mg/L
same,Concentration of Homolog in Effluent n = 11,240 min,0.70 mg/L
same,Concentration of Homolog in Effluent n = 12,240 min,0.49 mg/L
same,Concentration of Homolog in Effluent n = 13,240 min,0.36 mg/L
same,Concentration of Homolog in Effluent n = 14,240 min,0.17 mg/L
same,Concentration of Homolog in Effluent n = 15,240 min,0.09 mg/L
same,Concentration of Homolog in Effluent n = 16,240 min,0.00 mg/L
same,Concentration of Homolog in Effluent n = 17,240 min,0.00 mg/L
same,Cumul. (cumulative release in effluent),240 min,95.70 mg
same,Concentration of Homolog in Effluent Total,300 min,2.73 mg/L
same,Concentration of Homolog in Effluent n = 3,300 min,0.00 mg/L
same,Concentration of Homolog in Effluent n = 4,300 min,0.00 mg/L
same,Concentration of Homolog in Effluent n = 5,300 min,0.09 mg/L
same,Concentration of Homolog in Effluent n = 6,300 min,0.18 mg/L
same,Concentration of Homolog in Effluent n = 7,300 min,0.30 mg/L
same,Concentration of Homolog in Effluent n = 8,300 min,0.41 mg/L
same,Concentration of Homolog in Effluent n = 9,300 min,0.45 mg/L
same,Concentration of Homolog in Effluent n = 10,300 min,0.42 mg/L
same,Concentration of Homolog in Effluent n = 11,300 min,0.39 mg/L
same,Concentration of Homolog in Effluent n = 12,300 min,0.25 mg/L
same,Concentration of Homolog in Effluent n = 13,300 min,0.15 mg/L
same,Concentration of Homolog in Effluent n = 14,300 min,0.09 mg/L
same,Concentration of Homolog in Effluent n = 15,300 min,0.00 mg/L
same,Concentration of Homolog in Effluent n = 16,300 min,0.00 mg/L
same,Concentration of Homolog in Effluent n = 17,300 min,0.00 mg/L
same,Cumul. (cumulative release in effluent),300 min,98.15 mg
same,Concentration of Homolog in Effluent Total,360 min,1.20 mg/L
same,Concentration of Homolog in Effluent n = 3,360 min,0.00 mg/L
same,Concentration of Homolog in Effluent n = 4,360 min,0.00 mg/L
same,Concentration of Homolog in Effluent n = 5,360 min,0.05 mg/L
same,Concentration of Homolog in Effluent n = 6,360 min,0.11 mg/L
same,Concentration of Homolog in Effluent n = 7,360 min,0.15 mg/L
same,Concentration of Homolog in Effluent n = 8,360 min,0.19 mg/L
same,Concentration of Homolog in Effluent n = 9,360 min,0.23 mg/L
same,Concentration of Homolog in Effluent n = 10,360 min,0.20 mg/L
same,Concentration of Homolog in Effluent n = 11,360 min,0.17 mg/L
same,Concentration of Homolog in Effluent n = 12,360 min,0.10 mg/L
same,Concentration of Homolog in Effluent n = 13,360 min,0.00 mg/L
same,Concentration of Homolog in Effluent n = 14,360 min,0.00 mg/L
same,Concentration of Homolog in Effluent n = 15,360 min,0.00 mg/L
same,Concentration of Homolog in Effluent n = 16,360 min,0.00 mg/L
same,Concentration of Homolog in Effluent n = 17,360 min,0.00 mg/L
same,Cumul. (cumulative release in effluent),360 min,99.32 mg
same,Concentration of Homolog in Effluent Total,420 min,0.67 mg/L
same,Concentration of Homolog in Effluent n = 3,420 min,0.00 mg/L
same,Concentration of Homolog in Effluent n = 4,420 min,0.00 mg/L
same,Concentration of Homolog in Effluent n = 5,420 min,0.00 mg/L
same,Concentration of Homolog in Effluent n = 6,420 min,0.06 mg/L
same,Concentration of Homolog in Effluent n = 7,420 min,0.08 mg/L
same,Concentration of Homolog in Effluent n = 8,420 min,0.11 mg/L
same,Concentration of Homolog in Effluent n = 9,420 min,0.12 mg/L
same,Concentration of Homolog in Effluent n = 10,420 min,0.11 mg/L
same,Concentration of Homolog in Effluent n = 11,420 min,0.09 mg/L
same,Concentration of Homolog in Effluent n = 12,420 min,0.10 mg/L
same,Concentration of Homolog in Effluent n = 13,420 min,0.00 mg/L
same,Concentration of Homolog in Effluent n = 14,420 min,0.00 mg/L
same,Concentration of Homolog in Effluent n = 15,420 min,0.00 mg/L
same,Concentration of Homolog in Effluent n = 16,420 min,0.00 mg/L
same,Concentration of Homolog in Effluent n = 17,420 min,0.00 mg/L
same,Cumul. (cumulative release in effluent),420 min,99.74 mg
same,Concentration of Homolog in Effluent Total,480 min,0.00 mg/L
same,Concentration of Homolog in Effluent n = 3,480 min,0.00 mg/L
same,Concentration of Homolog in Effluent n = 4,480 min,0.00 mg/L
same,Concentration of Homolog in Effluent n = 5,480 min,0.00 mg/L
same,Concentration of Homolog in Effluent n = 6,480 min,0.00 mg/L
same,Concentration of Homolog in Effluent n = 7,480 min,0.00 mg/L
same,Concentration of Homolog in Effluent n = 8,480 min,0.00 mg/L
same,Concentration of Homolog in Effluent n = 9,480 min,0.00 mg/L
same,Concentration of Homolog in Effluent n = 10,480 min,0.00 mg/L
same,Concentration of Homolog in Effluent n = 11,480 min,0.00 mg/L
same,Concentration of Homolog in Effluent n = 12,480 min,0.00 mg/L
same,Concentration of Homolog in Effluent n = 13,480 min,0.00 mg/L
same,Concentration of Homolog in Effluent n = 14,480 min,0.00 mg/L
same,Concentration of Homolog in Effluent n = 15,480 min,0.00 mg/L
same,Concentration of Homolog in Effluent n = 16,480 min,0.00 mg/L
same,Concentration of Homolog in Effluent n = 17,480 min,0.00 mg/L
